For one series, the target named is T1, HIV protease (Human immunodeficiency virus type 1 group M subtype B, UniProt P04585).
T1 construct: HIV protease is diluted in the assay buffer to a final enzyme concentration of 12.3 nanomolar, based on a molecular weight of 10,780
Description: HIV protease enzyme assay. The series is classed as biochemical. An excerpt:
The compounds of the present invention are effective HIV protease inhibitors. Utilizing an enzyme assay as described below, the compounds set forth in the examples herein disclosed inhibited the HIV enzyme. The preferred compounds of the present invention and their calculated IC50 (inhibiting concentration 50%, i.e., the concentration at which the inhibitor compound reduces enzyme activity by 50%) values are shown in Table 17. The enzyme method is described below. The substrate is 2-Ile-Nle-Phe(p-NO2)-Gln-ArgNH2. The positive control is MVT-101 (Miller, M. et al, Science, 246, 1149 (1989)] The assay conditions are as follows:
20 mM sodium phosphate, pH 6.4
The above described substrate is dissolved in DMSO, then diluted 10 fold in assay buffer. Final substrate concentration in the assay is 80 μM.
HIV protease is diluted in the assay buffer to a final enzyme concentration of 12.3 nanomolar, based on a molecular weight of 10,780.
The final concentration of DMSO is 14% and the final concentration of glycerol is 18%. The test compound is dissolved in DMSO and diluted in DMSO to 10x the test concentration; 10 μl of the enzyme preparation is added, the materials mixed and then the mixture is incubated at ambient temperature for 15 minutes. The enzyme reaction is initiated by the addition of 40 μl of substrate. The increase in fluorescence is monitored at 4 time points (0, 8, 16 and 24 minutes) at ambient temperature. Each assay is carried out in duplicate wells.

A further series is described as follows: in vitro. The conditions noted are these: human, cem cells. The class given is cell-based. Here is the method: Methods, 20, 309-321 (1988). Assays can be performed in 96-well tissue culture plates. […] Several wells receive culture medium without virus (uninfected control cells). […] Either azidothymidine (AZT) or dideoxyinosine (ddI) is included as a positive drug control. […] DMSO is added to all control wells at an appropriate concentration. […] To each sample is added 100 μl of 10% sodium dodecylsulfate in 0.01N HCl to lyse the cells, and samples are incubated overnight.

Structures are written as SMILES.

For the molecule `CC(C)CN(C[C@@H](O)[C@H](Cc1ccccc1)NC(=O)[C@H](C)CS(C)(=O)=O)S(=O)(=O)NC(C)(C)C` [Example 14], at HIV protease (Table 9, HIV protease enzyme assay, pH 6.4, substrate 80 μM), the half-inhibitory concentration (IC50) (as a rule, the point on the concentration scale where inhibition reaches its midpoint) came out at 0.14 µM.

Consider `CC(C)(C)NS(=O)(=O)N(C[C@@H](O)[C@H](Cc1ccccc1)NC(=O)OCc1ccccc1)C1CCCCC1` [K], for which 10 µM produced 60% inhibition against HIV protease.

`CC(C)CN(C[C@@H](O)[C@H](Cc1ccccc1)NC(=O)OCc1ccccc1)S(=O)(=O)NCCOCc1ccccc1` [L]: at 10 µM the inhibition at HIV protease was 38%.

Take `CC(C)CN(C[C@@H](O)[C@H](Cc1ccccc1)NC(=O)OCc1ccccc1)S(=O)(=O)Nc1ccccc1` [E]: the cytotoxic concentration (CC50) (in general, the concentration at which the toxic effect on the cells reaches its halfway point) at 168 h in “in vitro” was determined as 7.5 µM.

The record behind these values is patent US5583132A, “Sulfonylalkanoylamino hydroxyethylamino sulfamic acids useful as retroviral protease inhibitors” (priority 1995, dated 1996).
